Usually inhibition stands for the percentage by which the read-out fell short of the control.

Common to all, as to type: biochemical
Test [1] deals with T1, Flt3 kinase (Homo sapiens, UniProt P36888).
T1 construct: recombinant N-terminal 6×His-tagged Flt3 kinase domain construct expressed from baculovirus; 6xHis (N); made in house
T1 sequence (P36888 610-943 limits assumed): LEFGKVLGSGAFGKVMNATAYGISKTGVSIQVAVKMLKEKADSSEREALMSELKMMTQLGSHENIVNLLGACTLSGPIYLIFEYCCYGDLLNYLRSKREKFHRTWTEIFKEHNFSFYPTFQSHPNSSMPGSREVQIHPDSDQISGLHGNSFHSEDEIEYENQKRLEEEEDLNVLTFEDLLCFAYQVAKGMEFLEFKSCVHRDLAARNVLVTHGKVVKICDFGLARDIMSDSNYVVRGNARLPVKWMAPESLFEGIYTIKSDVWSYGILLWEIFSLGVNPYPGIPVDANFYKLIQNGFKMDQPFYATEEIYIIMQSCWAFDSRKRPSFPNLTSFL
Kind of test: Flt3 kinase assay (33P incorporation into Poly(Glu-Tyr)). Conditions: 100 nM test compound; read-out: Inhibition at 100 nM (%) Flt-3. How it is done:
Inhibition of Flt3 kinase activity by compounds disclosed herein was quantified by measuring the amount of [^33P] incorporated into the substrate in the presence of a test compound. Briefly, a reaction mixture of 25 μL final volume containing 5 ng of Flt3 kinase (obtained by purifying recombinant N-terminal 6×His-tagged Flt3 kinase domain construct expressed from baculovirus), 5 μg of the substrate (Poly (Glu-Tyr, 4:1, Sigma)), kinase reaction buffer (20 mM MOPS pH 7.0, 1 mM EDTA, 5% glycerol, 0.01% Brij-35, 0.1% β-mercaptoethanol, 1 mg/mL BSA, 100 μM ATP, 0.1 μCi per well [^33P]-γ-ATP (2,500-3,000 Ci/mmol)), and a test compound (100 nM, diluted with 4% DMSO) or DMSO (as the control) was incubated at 30° C. for 30 minutes. The reaction was stopped by adding 5 μL of 3% phosphoric acid solution. The resultant reaction solution was then harvested onto a filter plate (UniFilter-96 GF/B, PerkinElmer), washed 20 times for 5 min with d.d. H2O, and followed by the addition of 30 μL of MicroScint™-20 Cocktail (PerkinElmer). The plate was then sealed and counted using a TopCount scintillation detector (PerkinElmer). The percentage of inhibition rate of the test compound was calculated by dividing the retained radioactivity of the test sample with the retained radioactivity of the control sample and shown in Table 3.

The target in test [2] is T2, Aurora A kinase (Homo sapiens, UniProt O14965).
T2 construct: purchased Upstate
T2 sequence (O14965 1-403): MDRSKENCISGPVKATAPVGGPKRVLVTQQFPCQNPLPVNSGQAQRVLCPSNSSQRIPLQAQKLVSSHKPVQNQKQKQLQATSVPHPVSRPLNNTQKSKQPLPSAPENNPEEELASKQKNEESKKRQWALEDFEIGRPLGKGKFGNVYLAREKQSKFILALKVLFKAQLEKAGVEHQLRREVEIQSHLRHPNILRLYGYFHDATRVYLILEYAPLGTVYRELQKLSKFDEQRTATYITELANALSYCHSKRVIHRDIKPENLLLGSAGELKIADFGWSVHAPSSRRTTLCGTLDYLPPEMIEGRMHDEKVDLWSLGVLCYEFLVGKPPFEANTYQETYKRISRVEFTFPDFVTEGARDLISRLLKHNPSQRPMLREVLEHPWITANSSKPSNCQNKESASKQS
As to the kind of experiment: Aurora A kinase assay ([γ-33P]ATP, CHOCKtide substrate). The conditions noted are these: 1.0 μM test compound. In outline: (§1)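 Radiometric filter-binding format: 33P incorporation into CHOCKtide counted after acid stop and filtration. Reactions ran 30 min at 33 °C, Aurora A with 10 μM ATP, Aurora B with 40 μM ATP. IC50 taken as concentration giving half-maximal kinase inhibition.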

Test [3] deals with T3, Aurora B kinase (Homo sapiens, UniProt Q96GD4).
T3 construct: purchased Cell signaling
As to the kind of experiment: Aurora B kinase assay ([γ-33P]ATP, CHOCKtide substrate). The conditions noted are these: 1.0 μM test compound. In outline:
as §1

Test [4] addresses T4, PDGFR-β kinase (Homo sapiens, UniProt P09619).
T4 construct: recombinant N-terminal 6×His-tagged PDGFR-β kinase domain construct expressed by baculovirus; 6xHis (N); made in house
Kind of test: PDGFR-β kinase assay (33P incorporation into Poly(Glu-Tyr)). Conditions: 500 nM test compound. How it is done: Inhibition of PDGFR-β kinase activity by compounds disclosed herein was quantified by measuring the amount of [^33P] incorporated into the substrate in the presence of a test compound. Briefly, a reaction mixture of 25 μL final volume containing 55 ng of PDGFR-β kinase (obtained by purifying recombinant N-terminal 6×His-tagged PDGFR-β kinase domain construct expressed by baculovirus), 2.5 μg of the substrate (Poly (Glu-Tyr, 4:1, Sigma)), kinase reaction buffer (20 mM MOPS pH 7.0, 1 mM EDTA, 5% glycerol, 0.01% Brij-35, 0.1% β-mercaptoethanol, 1 mg/mL BSA, 2 mM MnCl2, 30 μM ATP, 0.1 μCi per well [^33P]-γ-ATP (2,500-3,000 Ci/mmol)), and a test compound (500 nM, diluted with 4% DMSO) or DMSO (as the control) was incubated at 30° C. for 30 minutes. The reaction was stopped by adding 5 μL of 3% phosphoric acid solution. The resultant reaction solution was then harvested onto a filter plate (UniFilter-96 GF/B, PerkinElmer), washed 20 times for 5 min with d.d. H2O, and followed by the addition of 30 μL of MicroScint™-20 Cocktail (PerkinElmer). The plate was then sealed and counted using a TopCount scintillation detector (PerkinElmer). The percentage of inhibition rate of the test compound was calculated by dividing the retained radioactivity of the test sample with the retained radioactivity of the control sample and shown in Table 3.

Test [5] deals with T5, VEGFR2 kinase (Homo sapiens, UniProt P35968).
T5 construct: recombinant N-terminal 6×His-tagged VEGFR2 kinase domain construct expressed by baculovirus; 6xHis (N); made in house
As to the kind of experiment: VEGFR2 kinase assay (33P incorporation into Poly(Glu-Tyr)). Conditions: 500 nM test compound; read-out: Inhibition at 500 nM (%) VEGFr-2. How it is done:
Inhibition of VEGFR2 kinase activity by compounds disclosed herein was quantified by measuring the amount of [^33P] incorporated into the substrate in the presence of a test compound. Specifically, a reaction mixture with a final volume of 25 μL and containing 6.25 ng of VEGFR2 kinase (obtained by purifying recombinant N-terminal 6×His-tagged VEGFR2 kinase domain construct expressed by baculovirus), 5 μg of substrate (Poly (Glu-Tyr, 4:1, Sigma)), kinase reaction buffer (20 mM MOPS pH 7.0, 1 mM EDTA, 5% glycerol, 0.01% Brij-35, 0.1% β-mercaptoethanol, 1 mg/mL BSA, 100 μM ATP, 0.1 μCi per well [^33P]-γ-ATP (2,500-3,000 Ci/mmol), and 500 nM test compound (final concentration of DMSO was 4%) or 4% DMSO alone (as the control sample), was incubated at 30° C. for 30 minutes. The reaction was then stopped by adding 5 μL of 3% phosphoric acid solution. The resultant solution was transferred to and harvested by a filter plate (UniFilter-96 GF/B, PerkinElmer). The filter plate was then washed 20 times with d.d. H2O for 5 min followed by the addition of 30 μL of MicroScint™-20 Cocktail (PerkinElmer). After the plate was sealed, the retained radioactivity on the filter was counted using a TopCount scintillation detector (PerkinElmer). The percentage of inhibition rate of the test compound was calculated by dividing the retained radioactivity of the test sample with the retained radioactivity of the control sample and shown in Table 3.

T5 sequence (P35968 834-1162 limits assumed): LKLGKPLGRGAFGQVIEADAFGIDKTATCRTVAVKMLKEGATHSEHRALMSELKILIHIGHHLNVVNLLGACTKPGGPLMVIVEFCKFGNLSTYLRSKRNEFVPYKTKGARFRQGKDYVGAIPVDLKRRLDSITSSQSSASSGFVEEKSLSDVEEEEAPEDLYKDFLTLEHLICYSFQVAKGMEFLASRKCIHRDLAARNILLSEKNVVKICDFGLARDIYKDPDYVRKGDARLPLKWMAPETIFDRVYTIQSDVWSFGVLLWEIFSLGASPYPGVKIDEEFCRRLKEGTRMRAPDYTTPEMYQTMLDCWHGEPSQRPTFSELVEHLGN
T4 sequence (P09619 600-962 limits assumed): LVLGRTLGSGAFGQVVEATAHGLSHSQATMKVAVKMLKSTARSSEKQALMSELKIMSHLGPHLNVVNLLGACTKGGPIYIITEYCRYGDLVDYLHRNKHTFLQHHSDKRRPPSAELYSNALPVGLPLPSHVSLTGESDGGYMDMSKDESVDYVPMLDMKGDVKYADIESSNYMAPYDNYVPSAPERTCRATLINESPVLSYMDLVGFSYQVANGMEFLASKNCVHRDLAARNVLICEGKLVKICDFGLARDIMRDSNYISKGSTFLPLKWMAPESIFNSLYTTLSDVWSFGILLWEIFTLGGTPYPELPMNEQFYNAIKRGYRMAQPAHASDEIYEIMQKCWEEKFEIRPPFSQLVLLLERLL
T3 sequence (Q96GD4 whole entry): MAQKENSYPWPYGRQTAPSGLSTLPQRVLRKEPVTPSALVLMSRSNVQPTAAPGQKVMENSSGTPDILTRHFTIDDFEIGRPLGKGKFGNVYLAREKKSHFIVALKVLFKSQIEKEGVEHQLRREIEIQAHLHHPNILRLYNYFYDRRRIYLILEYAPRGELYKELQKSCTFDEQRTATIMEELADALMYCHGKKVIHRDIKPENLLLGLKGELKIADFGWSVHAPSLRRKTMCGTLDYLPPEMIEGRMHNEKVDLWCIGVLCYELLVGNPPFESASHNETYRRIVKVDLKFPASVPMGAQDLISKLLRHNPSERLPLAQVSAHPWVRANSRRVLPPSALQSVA

Regarding `O=C(O)CCc1c(/C=C2\C(=O)Nc3ccc(NC(=O)c4ccc([N+](=O)[O-])cc4)cc32)[nH]c2c1C(=O)CCC2` [DCB-70142, (Z)-3-(2-((5-(4-nitrobenzamido)-2-oxoindolin-3-ylidene)methyl)-4-oxo-4,5,6,7-tetrahydro-1H-indol-3-yl)propanoic acid], the inhibition at 0.1 µM in test [1] was found to be 11.8%. For the same compound, the inhibition at 1 µM in test [2] was 27.1%; in test [3] it was 2.4%. The inhibition at 0.5 µM in test [4] is 7.9%; in test [5], 44.8%.

The values are drawn from US7897602B2, “Indolinone compounds as kinase inhibitors” (Development Center for Biotechnology, priority 2009, dated 2011).
